Measurements: paper PMC13288762 (Frontiers in Medicine, 2026)

What was measured:
[1] = system: Mdr2−/− mice (model of PSC); parameters: method as in PMID 10711453; conditions: cited from earlier work
[2] = system: Mdr2−/− mice (model of PSC); experiment: MC infiltration and activation in liver of Mdr2−/− mice (IHC, qPCR); format: in vivo, mouse; conditions: 20 mg/kg IP daily, 2 weeks
Experimental: (§1) Animal procedures were performed according to protocols approved by Indiana University School of Medicine Institutional Animal Care and Use Committee. […] Male Mdr2^−/− mice (n = 8) were collected at twelve-weeks for PSC model. Twelve-week-old male Friend Virus B NIH Jackson (FVB/NJ [FVB/wild type (WT) control], n = 8) mice were used as control WT for Mdr2^−/−.
(§2) In all groups, serum, liver, cholangiocytes, and cholangiocyte supernatants were collected as described ([18], [19]). The collected liver was divided into three portions: (i) snap-frozen tissue; (ii) OCT-embedded blocks (5 μm cryosections) for immunofluorescence (IF); and (iii) formalin-fixed, paraffin-embedded (FFPE) blocks (4 μm sections) for immunohistochemistry (IHC).
(§3) Liver inflammation was evaluated by IHC for F4/80 in FFPE mouse liver sections, and positive cells were quantified by Image-Pro Premier software (Rockville, MD). Liver MC infiltration was detected with IHC for tryptase β-2 (Tpsb2) and mucosal MC chymase-1 (mMCP1) in liver sections. MCs were semi-quantified as Tpsb2 or mMCP1 positivite cell number/total area with Image-Pro Premier software (Rockville, MD). MC activation was determined by qPCR for Fc fragment of IgE, high affinity I, receptor for alpha polypeptide (Fcer1a), Mcpt1 and Tpsb2 in total liver samples.
(§4) Since we found increased chymase levels in human PSC livers, we evaluated the pharmacological inhibition of chymase in modulating PSC in Mdr2^−/− mice. […] All treatment groups were compared to Mdr2^−/− mice.

[3] = system: Mdr2−/− mice (model of PSC); experiment: Liver damage, bile acids and inflammation in Mdr2−/− mice (H&E, TBA kit, F4/80 IHC); format: in vivo, mouse; conditions: 20 mg/kg IP daily, 2 weeks
Experimental: as §1, §2
Liver damage was assessed by hematoxylin and eosin (H&E) staining in FFPE mouse liver sections and scored in a coded fashion to determine portal inflammation. Serum and liver total bile acids (TBAs) were determined using a TBA Assay Kit (Colorimetric, Sigma-Aldrich).
as §3, §4

aortic aneurysm model = system: aortic aneurysm model; parameters: method as in PMID 31128093; conditions: 10 mg/kg for 4 weeks; cited from earlier work
[4] = system: Mdr2−/− mice (model of PSC); experiment: Liver fibrosis in Mdr2−/− mice (FG/SR, hydroxyproline, desmin IF, qPCR); format: in vivo, mouse
Experimental: as §1, §2
Collagen deposition was determined by Fast Green/Sirius Red staining in FFPE mouse liver sections and quantified by the Image-Pro Premier software (Rockville, MD). Liver fibrosis was also determined by measuring hydroxyproline levels in total liver samples using the hydroxyproline assay kit (MAK008-1KT; Millipore Sigma, Billerica, MA). To detect activated HSCs, IF for desmin (co-stained with CK-19) was performed in frozen liver sections with semi-quantification ([20], [21]). The mRNA expression of the fibrosis markers, collagen type I alpha 1 (Col1a1) and tissue inhibitor of metalloproteinases 2 (Timp2) and transforming growth factor beta 1 (Tgfb1) was measured in total mouse livers by qPCR.
as §4

[5] = parameters: method as in earlier work; conditions: Phase 2 clinical trial, atopic dermatitis; cited from earlier work
[6] = system: Mdr2−/− mice (model of PSC); experiment: Ductular reaction and biliary senescence in Mdr2−/− mice (CK-19 IHC, p16 IF, qPCR); format: in vivo, mouse; conditions: 20 mg/kg IP
Experimental: as §1, §2
Ductular reaction was evaluated in FFPE mouse liver sections by IHC for CK-19 to specifically mark bile ducts. Stained slides were scanned by a digital scanner (Aperio AT2 scanner; Leica Biosystems). CK-19-positive area was quantified using the Image-Pro Premier software (Rockville, MD). Biliary senescence was evaluated by: (i) IF for p16 expression in frozen liver sections co-stained with CK-19 (to mark bile ducts) and (ii) mRNA expression of cellular senescence markers, cyclin dependent kinase inhibitor 2a (Cdkn2a; gene for p16), cyclin dependent kinase inhibitor 2c (Cdkn2c, gene for p18) and galactosidase, beta 1-like (Glb1l) in isolated mouse cholangiocytes ([3], [19]).
as §4

[7] = male Mdr2−/− mice, vs untreated Mdr2−/−, qPCR total liver
[8] = 20 mg/kg IP daily, 2 weeks, qPCR total liver
[9] = 20 mg/kg IP daily, 2 weeks, vs untreated mice

O=C(O)c1cc(=O)c2c(OCC(O)COc3cccc4oc(C(=O)O)cc(=O)c34)cccc2o1 [cromolyn sodium]
levels of MC mediators, inflammation, tissue damage, and fibrosis [1]: attenuates

CCC[C@@H](NC(=O)N1CC(=NOCC)NC[C@H](Cc2cc(Cl)ccc2OC)C1=O)c1ccc(C(=O)O)c(N)c1 [INVA8001]
number of chymase (mMCP1)-positive cells in liver ([2]; Mdr2−/− mice, IHC): significant reduction
number of tryptase (Tpsb2)-positive cells in liver ([2]; Mdr2−/− mice, IHC): significant reduction
Fcer1a mRNA expression in liver [2, 7]: attenuated
Mcpt1 mRNA expression in liver [2, 7]: attenuated
Tpsb2 mRNA expression in liver [2, 7]: decreasing trend (not statistically significant)
histological damage (H&E) [3]: amelioration
portal inflammation (H&E) [3]: amelioration
liver enzymes ([3]; data not shown): no significant changes
hepatic total bile acid (TBA) accumulation ([3]; liver tissue): significant reduction
number of infiltrating macrophages (F4/80 staining) ([3]; portal tracts, IHC): significantly reduced
serum total bile acid (TBA) accumulation ([3]; serum): significant reduction
efficacy in a model of aortic aneurysm (aortic aneurysm model): effective
Col1a1 gene expression in liver [4, 8]: significantly reduced
Tgfb1 gene expression in liver [4, 8]: significantly reduced
Timp2 gene expression in liver [4, 8]: significantly reduced
hepatic fibrosis, FG/SR staining [4, 9]: decreased
liver hydroxyproline content [4, 9]: lowered
desmin immunoreactivity (HSC activation) ([4]; 20 mg/kg IP, IF liver sections): significantly reduced
safety and tolerability, adverse effects [5]: no significant adverse effects reported
p16 immunoreactivity in liver ([6]; IF co-stained with CK-19): reduced
bile duct mass (CK-19-positive bile ducts) ([6]; IHC): significant reduction
Cdkn2a expression in isolated cholangiocytes ([6]; qPCR isolated cholangiocytes): reduced
Cdkn2c expression in isolated cholangiocytes ([6]; qPCR isolated cholangiocytes): reduced
Glb1l expression in isolated cholangiocytes ([6]; qPCR isolated cholangiocytes): reduced
Tgfb1 expression in isolated cholangiocytes ([6]; qPCR isolated cholangiocytes): reduced
Cdkn2a mRNA expression in total liver ([6]; qPCR total liver): reduced
